Here are results for one molecule from PMC9747717, “A novel small molecule inhibitor of human Drp1” (Scientific Reports, 2022).

Several values for one entry are separate records, joined by “and”; a condition that tells them apart may be missing. Equal values may be shown once.

One data set concerns the target T1, human Drp1 isoform 3 (Homo sapiens, UniProt O00429).
T1 construct: His tag; made in house; host or cells: E. coli Rosetta (DE3), pET21b vector
Nature of the data set: Microscale thermophoresis (MST) binding. To be noted: human Drp1 isoform 3, 5% DMSO. The protocol: The recombinant human Drp1 protein (His-tagged human Drp1 isoform 3, kindly provided by Professor Michael Ryan, Monash University, Australia) was generated as described previously. Briefly, cDNA for human Drp1 (isoform 3) was cloned into pET21b vector and transformed in Rosetta (DE3) competent cells (Novagen, MA, Merck Millipore). Transformed cells were propagated in Luria–Bertani broth and protein expression was initiated by the addition of 0.5 mM isopropyl β-D-1-thiogalactopyranoside. Cells were harvested by centrifugation at 3,500 g for 20 min at 4 °C, and the pellet was re-suspended in lysis buffer containing 50 mM Tris HCl (pH 7.3), 500 mM NaCl, 50 mM imidazole, 2.5 mM β-mercaptoethanol, 0.01 mM LEUPEP, 0.1 mM AEBSF and 1 mM benzaminidium chloride. The cells were lysed using a pre-cooled EmulsiFlex-C5 homogenizer (Avestin, Ontario, Canada) on ice and clarified by centrifugation at 17,000 g for 30 min. The clarified cell lysate was loaded onto a 5 mL Nickel Chelating Sepharose Fast Flow column (GE Healthcare, Buckinghamshire, UK) and Drp1 protein was eluted with wash buffer containing 50 mM Tris–HCl (pH 7.6), 150 mM NaCl, 2.5 mM β-mercaptoethanol and 400 mM imidazole. […]
Compound binding was assessed in against the human Drp1 isoform-3 protein using MST Monolith NT.115 instrument (NanoTemper Technologies, Mȕnchen, Germany). […]
Background: MST reads how a fluorescent partner responds to local heating, with and without ligand.

A further data set has as its system HL-1 cells. As to the kind of experiment: Simulated ischaemia-reperfusion injury, cell death. Type of data set: cell-based, Murine. To be noted: 50 µM during simulated ischaemia-reperfusion; DMSO 29.55 ± 5.45%. The protocol:
HL-1 cells were plated in 24-well plate pre-coated with 5 μg/mL human fibronectin (Merck Millipore, MA, USA) in 0.02% porcine gelatin solution (Sigma-Aldrich, MA, USA). Cells were maintained in Claycomb media (Sigma-Aldrich) supplemented with 0.1 mM (±)-norepinephrine (+)-bitartrate salt (Sigma-Aldrich), 2 mM GlutaMAX (Thermo Fisher Scientific, MA, USA), 100 μg/mL penicillin/streptomycin (Thermo Fisher Scientific) and 10% non-heat inactivated foetal bovine serum (FBS) (Bovogen Biologicals, Victoria, Australia). The simulated ischaemia–reperfusion injury was performed as described in Rosdah et al.[25]. To simulate ischaemia, cells were cultured in ischaemic buffer (25 mM NaHEPES, 1 mM KH2PO4, 10 mM NaHCO3, 74 mM NaCl, 1.2 mM MgCl2.6H2O, 16 mM KCl, 1.2 mM CaCl2, 10 mM 2-deoxy-d-glucose) and hypoxia (< 0.1% O2) was induced in an airtight GENBox anaerobic chamber containing a Genbox Anaer generator sachet (BioMérieux, Marcy l’Etoile, France) at 37 °C. […] Cell death was determined by staining with 1 μg/mL propidium iodide and 3 μg/mL Hoechst 33258. The number of dead cells (propidium iodide positive) was counted and expressed as a percentage over total number of cells (Hoechst 33258 positive). At least 100 cells were counted per group for each independent experiment.

Another data set relates to Drp1 KO MEFs. As to the kind of experiment: Mitochondrial morphology analysis in Drp1 KO MEF. Type of data set: cell-based, mouse. To be noted: Drp1 KO MEFs, 5, 10 or 50 µM. The protocol: Human foreskin fibroblasts and Drp1 wildtype and KO MEF (kindly provided by Professor Hiromi Sesaki, Johns Hopkins University, USA)[28],[29] were transduced with pAS2.EYFP.puro lentiviruses (RNAiCore, Academia Sinica, Taiwan) carrying the mitochondrial-targeted EGFP sequence as described in Kalkhoran et al.[30]. Cells were then treated with DRP1i27 (5, 10 or 50 µM) or 0.1% DMSO vehicle control for 24 h.
Mitochondrial morphology in HL-1 cells were visualised by immunostaining of mitochondrial Hsp60 antibody (Abcam, MA, USA). Images were acquired using Olympus BX60 fluorescence microscope at 600 × magnification and analysed using Fiji imaging software (ImageJ v1.53c). Cells were categorised into predominantly (> 50%) having fused or fragmented mitochondria. At least 100 cells were analysed for each treatment group.

Data set [1] is described as follows: Dynamic light scattering (DLS) compound aggregation threshold. Type of data set: physicochemical. The protocol:
Identification of compound aggregation threshold was performed using DLS Zetasizer Nano ZS (Malvern Pananalytical, Worcestershire, UK). 100 µL of samples were measured in low-volume plastic micro cuvettes (BrandTech Scientific, CT, USA) at 25 °C using default size measurement settings. […] Mdivi-1 and DRP1i27 were serially diluted three-fold from 500 µM until the volume distribution of particle size was similar to that of the DMSO control. To specifically determine aggregation threshold, further dilution was carried out between concentrations where aggregation was first observed.

T1 sequence (O00429 1-699 isoform O00429-4): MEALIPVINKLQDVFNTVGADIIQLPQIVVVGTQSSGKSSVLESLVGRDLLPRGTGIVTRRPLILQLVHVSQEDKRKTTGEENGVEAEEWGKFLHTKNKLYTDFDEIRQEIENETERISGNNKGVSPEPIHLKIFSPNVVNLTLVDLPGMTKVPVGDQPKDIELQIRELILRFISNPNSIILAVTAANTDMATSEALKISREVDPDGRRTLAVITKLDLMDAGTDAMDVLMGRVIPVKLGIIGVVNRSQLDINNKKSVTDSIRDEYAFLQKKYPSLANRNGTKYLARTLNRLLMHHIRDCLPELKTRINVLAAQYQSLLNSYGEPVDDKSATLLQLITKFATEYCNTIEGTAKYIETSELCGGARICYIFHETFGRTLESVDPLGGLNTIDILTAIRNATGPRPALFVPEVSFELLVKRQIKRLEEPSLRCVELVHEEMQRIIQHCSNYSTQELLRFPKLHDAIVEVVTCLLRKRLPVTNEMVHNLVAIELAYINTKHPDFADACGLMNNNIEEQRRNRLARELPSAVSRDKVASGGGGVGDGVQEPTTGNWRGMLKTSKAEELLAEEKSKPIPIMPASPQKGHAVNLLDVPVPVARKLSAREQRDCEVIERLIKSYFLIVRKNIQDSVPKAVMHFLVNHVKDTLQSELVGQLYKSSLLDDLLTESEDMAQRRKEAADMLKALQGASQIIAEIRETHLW

As to `Cc1nc[nH]c1CN1C[C@@H]2CC[C@H](C1)N(Cc1ccc(-c3cc[nH]n3)o1)C2` [DRP1i27], the Kd (as a rule, a measure of binding affinity in units of concentration) on human Drp1 isoform 3 was 191 µM and 190 µM. In the data set on HL-1 cells, this molecule came in with a cell death of 15.17 ± 3.67%. Besides, in the data set with Drp1 KO MEFs, the “cellular networks of mitochondria” value is recorded as “no significant effect”. Besides, the aggregation threshold in data set [1] (PBS, 2% DMSO) is on record as 130 µM; in data set [1] (PBS, 5% DMSO), 350 µM; in data set [1] (with 0.05% Tween-20, DMSO content not specified), “at least 500 µM”.
